In ChEMBL document CHEMBL5030519, “A "Two-Birds-One-Stone" Approach toward the Design of Bifunctional Human Immunodeficiency Virus Type 1 Entry Inhibitors Targeting the CCR5 Coreceptor and gp41 N-Terminal Heptad Repeat Region” (J Med Chem, 2021):
Residues, ends and D or L forms follow the SMILES beside them. Groups on a side chain read outwards from the residue. *: point of attachment. X1 = CC(=O)N1CCC(C(=O)N(CCCN2CCC(Cc3ccc(C(=O)*)cc3)CC2)c2ccc(C)c(Cl)c2)CC1; PEG12 = NCCOCCOCCOCCOCCOCCOCCOCCOCCOCCOCCOCCOCCC(=O)O

Experiments:
[1] = test system: Human immunodeficiency virus 1; type: functional, organism-based, V38E/N42S; conditions: cemx174 5.25m7
[2] = test system: Human immunodeficiency virus 1; type: functional, organism-based, D36G; conditions: cemx174 5.25m7
[3] = test system: Human immunodeficiency virus 1; type: functional, organism-based; conditions: Human immunodeficiency virus 1, BaL (subtype B, R5), CEMx174 5.25M7, 144 h
[4] = test system: Human immunodeficiency virus 1; type: functional, organism-based, N427/N43K; conditions: cemx174 5.25m7
[5] = test system: Human immunodeficiency virus 1; type: functional, organism-based, V38A/N427; conditions: cemx174 5.25m7

| Compound | EC50 [1] [µM] | EC50 [2] [µM] | EC50 [3] [µM] | EC50 [4] [µM] | EC50 [5] [µM] |
| --- | --- | --- | --- | --- | --- |
| enfuvirtide | 0.261 | 0.00431 | 0.00158 | 0.673 | 0.656 |
| CC[C@H](C)[C@H](NC(=O)[C@H](CC(C)C)NC(=O)[C@H](CO)NC(=O)[C@H](Cc1cnc[nH]1)NC(=O)[C@@H](NC(=O)[C@H](CC(C)C)NC(=O)[C@H](CO)NC(=O)[C@@H](NC(=O)[C@H](Cc1ccc(O)cc1)NC(=O)[C@H](CC(N)=O)NC(=O)[C@H](CC(N)=O)NC(C)=O)[C@@H](C)O)[C@@H](C)CC)C(=O)N[C@@H](CCC(=O)O)C(=O)N[C@@H](CCC(=O)O)C(=O)N[C@@H](CO)C(=O)N[C@@H](CCC(N)=O)C(=O)N[C@@H](CC(N)=O)C(=O)N[C@@H](CCC(N)=O)C(=O)N[C@@H](CCC(N)=O)C(=O)N[C@@H](CCC(=O)O)C(=O)N[C@@H](CCCCN)C(=O)N[C@@H](CC(N)=O)C(=O)N[C@@H](CCC(=O)O)C(=O)N[C@@H](CCC(N)=O)C(=O)N[C@@H](CCC(=O)O)C(=O)N[C@@H](CC(C)C)C(=O)N[C@@H](CC(C)C)C(=O)N[C@@H](CCCCNC(=O)CCOCCOCCOCCOCCOCCOCCOCCOCCOCCOCCOCCOCCNC(=O)c1ccc(CC2CCN(CCCN(C(=O)C3CCN(C(C)=O)CC3)c3ccc(C)c(Cl)c3)CC2)cc1)C(N)=O (Ac-NNYTSLIHSLIEESQNQQEKNEQELLK([PEG12-X1])-NH2) |  |  | > 0.05 |  |  |
